The results in this text go back to patent US20060025406A1, “Modulators of hepatocyte growth factor/c- Met activity” (Angion Biomedica Corporation, priority 2004, published 2006).

In one assay the test system is HUVEC cells. Put plainly: HGF/SF-induced HUVEC cell proliferation ([3H]-thymidine incorporation). Format: cell-based, human. The note with it: HGF/SF 25 ng/ml, overnight, FIG. 1A. The method, then: Compounds of the invention were tested for HGF/SF inhibitory activity in HGF/SF-induced HUVEC cell proliferation in vitro. Briefly, HUVEC cells were seeded into 48-well plates and serum starved for 2 hours in medium containing 1% BSA, and then treated with test compounds in multiple concentrations in the presence or absence of HGF/SF (25 ng/ml, R&D Systems) overnight. This experiment also included negative (vehicle alone) and positive (HGF/SF alone) controls. Cell proliferation was measured by the incorporation of [^3H]-thymidine and counted using Beta scintillation counter.
(In general: Uptake of a labelled nucleoside into DNA is a usual measure of proliferation.)

Assay [1] has as its system A549 human lung carcinoma cells. Kind of assay: MTT assay, cell viability. Format: cell-based. The following applies: 72 hours continuous exposure. How it is done: To investigate the effect of c-Met antagonist compound A on inhibiting the growth of A549 human lung carcinoma cells in vitro, an MTT assay was carried out to determine cell viability. Cells were plated in 96-well plates at 5000 cells/well in complete medium, in the absence of drug. After 24 hours to allow for cell attachment, cells were incubated for 72 hours with the tested compounds (5 different concentrations) or vehicle. Cells were then exposed to MTT for 4 hours, and absorbance was measured at a wavelength of […].
A general note: Tetrazolium dyes change colour on reduction, which living cells bring about.

For assay [2] the test system is unchanged. Kind of assay: A549 subcutaneous xenograft. Format: in vivo, Balb C nude mice. The following applies: 5 mg/kg i.p. daily for 3 weeks. How it is done: To investigate the effect of c-Met antagonist compound A on inhibiting the growth of A549 human lung carcinoma cells in vivo, 2×10^6 cells of A549 were injected subcutaneously into the right hind flank of male Balb C nude mice. Tumors were allowed to develop for 12 days and then animals were treated with compound A at 5 mg/kg i.p. daily for 3 weeks. Tumor size measurements were made twice weekly and volumes calculated ((length×width^2)/2 (mm^3)) Final weight of excised tumors was measured at the end of the 3-week treatment period (0.78 g for control vs. 0.05 g for compound A treated).

Broadly, the IC50 is the point on the concentration scale where inhibition reaches its midpoint. High values mean weaker potency, low ones greater potency.

In the case of `CC(C)=CC1C(CNc2nc(Nc3ccccc3C(C)C)c3ccccc3n2)C1(C)C` (centres unmarked) [B], in the assay with HUVEC cells, the “inhibition of HGF/SF stimulation of endothelial cell proliferation” value is “inhibited HGF/SF stimulation of endothelial cell proliferation”.
`OCc1ccccc1Sc1ccccc1CNc1nc(NC2CCCC2)c2ccccc2n1` [compound A] returned an IC50 in assay [1] of 2.9 µM. Moreover, the “tumor volume and weight” value in assay [2] was “significantly reduced tumor volume and weight”. The “final weight of excised tumors” value in assay [2] (control 0.78 g) came to 0.05 g. The “inhibition of HGF/SF stimulation of endothelial cell proliferation” value in the assay with HUVEC cells is “inhibited HGF/SF stimulation of endothelial cell proliferation”.
